Measurements: PMC11790914, “Chemogenomics for steroid hormone receptors (NR3)” (Communications Chemistry, 2025)
Values joined by “and” are separate entries in the source; they are usually repeats but may differ in a detail not shown here. Equal values may be shown once.

Key:
AURKA = biological target: T1, AURKA (Homo sapiens, UniProt O14965); assay: Liability panel screening by DSF: AURKA; format: binding; conditions: DSF, 20 µM, n=2; read-out: Mean ΔTM AURKA
T1 construct: made in house
T1 sequence (O14965 1-403): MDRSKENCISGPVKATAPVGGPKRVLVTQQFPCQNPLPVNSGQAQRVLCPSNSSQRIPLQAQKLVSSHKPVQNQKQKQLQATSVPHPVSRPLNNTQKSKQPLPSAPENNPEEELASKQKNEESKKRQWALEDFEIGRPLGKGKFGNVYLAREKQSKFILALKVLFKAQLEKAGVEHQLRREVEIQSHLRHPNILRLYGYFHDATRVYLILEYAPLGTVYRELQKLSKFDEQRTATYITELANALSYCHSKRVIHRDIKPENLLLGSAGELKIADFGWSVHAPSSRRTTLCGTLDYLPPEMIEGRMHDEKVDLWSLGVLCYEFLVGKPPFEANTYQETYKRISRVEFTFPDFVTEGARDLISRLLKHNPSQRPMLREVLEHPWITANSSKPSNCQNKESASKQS
Procedure, shortened: (§1)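 ∆Tm in K was taken from Boltzmann-fitted unfolding inflection points, run in duplicate with a temperature ramp of 3 °C per minute up to 85 °C. Each recombinant protein (2 µM) was in HEPES 10 mM pH 7.5 and NaCl 500 mM, with SYPRO Orange dye at 1:1000.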

NR3B3 (ERRγ) = conditions: (lit.); ref Supplementary Table 1; read-out: Potency [nM] IC50, NR3B3 (ERRγ); cited from earlier work
CDK2 = biological target: T2, CDK2 (Homo sapiens, UniProt P24941); assay: Liability panel screening by DSF: CDK2; format: binding; conditions: DSF, 20 µM, n=2; read-out: Mean ΔTM CDK2
T2 construct: made in house
Procedure, shortened: as §1

HEK293T cells [1] = assay: Cytotoxicity: necrosis induction (red fluorescent dye for permeable plasma membranes); format: cell-based; conditions: 0.3 µM, 24 h, necrotic cell count normalized to 0.1% DMSO, single replicates;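 note: compounds applied in DMEM high glucose with 0.1% FCS and 0.1% DMSO, necrotic HEK293T cells counted by red staining of cells whose plasma membranes had become permeable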
BRPF1 = biological target: T3, BRPF1 (Homo sapiens, UniProt P55201); assay: Liability panel screening by DSF: BRPF1; format: binding; conditions: DSF, 20 µM, n=2; read-out: Mean ΔTM BRPF1
T3 construct: This panel comprised ten highly ligandable kinases and bromodomains; made in house
T3 sequence (P55201 628-732 limits assumed): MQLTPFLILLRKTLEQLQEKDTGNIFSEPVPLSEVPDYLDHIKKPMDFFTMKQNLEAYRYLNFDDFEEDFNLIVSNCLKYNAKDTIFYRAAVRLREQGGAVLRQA
Procedure, shortened: as §1

HEK293T cells [2] = assay: Cytotoxicity: metabolic activity (WST-8 / CCK-8 assay); conditions: single replicates
Method: Cells were incubated with the test compounds at the indicated concentrations solubilized with 0.1% DMSO for 24 h. Growth-rate was determined based on the change in confluence over 24 h normalized to the change in confluence of cells treated with the 0.1% DMSO control (n = 10). Metabolic activity was determined with a water-soluble tetrazolium-8 (WST-8) assay (n = 8) after 24 h treatment. Apoptotic cells were detected with a fluorogenic DNA dye coupled to the caspase-3/7 recognition sequence (DEVD) after 24 h treatment and the apoptotic cell count was normalized to 0.1% DMSO treated cells (n = 6).
HEK293T cells (German Collection of Microorganisms and Cell Culture GmbH, DSMZ; #ACC305) were cultured in DMEM high glucose, supplemented with 10% fetal calf serum (FCS), sodium pyruvate (1 mM), penicillin (100 µ/mL) and streptomycin (100 µg/mL) at 37 °C and 5% (v/v) CO2, and seeded in pre-coated (10 µg/mL collagen G solution (Merck KgaA; #L7213) for 30 min at 37 °C) 96-well plates (2 × 10^5 cells per well). After 24 h, the cells were treated with the respective NR3 CG compound candidate at the recommended concentration, bexarotene (100 µM) or doxorubicin (30 µM) as positive controls in DMEM high glucose supplemented with 0.1% FCS, penicillin (100 µ/mL), streptomycin (100 µg/mL) and 0.1% DMSO, or 0.1% DMSO alone as an untreated control. Each sample was prepared in at least four biologically independent replicates. […] Thereafter, the medium was aspirated and the cells were incubated for 3 h with 90 µL DMEM high glucose supplemented with 0.2% FCS, penicillin (100 µ/mL) and streptomycin (100 µg/mL) and additionally containing 10 µL Cell Counting Kit 8 solution (CCK-8; MedChemExpress, Monmouth Junction, New York, USA; #HY-K0301), and absorbance was measured at 1 h, 2 h and 3 h of incubation at 450 nm on a Tecan Spark Cyto to assess metabolic activity of the cells. Before drug administration, after the first medium exchange, 24 h after drug administration, and after fluorescence imaging cell confluence was assessed using the Tecan Spark Cyto, to account for changes in cell confluence due to drug administration and cell handling. Compound effects on cell confluence, apoptosis, metabolic activity and necrosis were normalized to the vehicle control of each biological replicate individually.

[3] = tested on: NF-κB activity in HEK293 NF-κB reporter cells; assay: NF-kB activity assay (GFP reporter, ionomycin/PMA); format: cell-based; conditions: n=3
Procedure, shortened: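 Reporter readout: GFP-expressing cells normalized to confluence, imaged every 90 min across 24 h after ionomycin (100 ng/mL)/PMA (10 ng/mL) stimulation of HEK293 cells pre-treated 4 h with compound (0.1% DMSO); triplicate independent experiments.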

HEK293T cells [4] = assay: Cytotoxicity: growth-rate (change in confluence over 24 h); conditions: normalized to 0.1% DMSO control, single replicates (n=1...)
FGFR3 = biological target: T4, FGFR3 (Homo sapiens, UniProt P22607); assay: Liability panel screening by DSF: FGFR3; format: binding; conditions: DSF, 20 µM, n=2; read-out: Mean ΔTM FGFR3
T4 construct: made in house
Procedure, shortened: as §1

BRD4 = biological target: T5, BRD4 (Homo sapiens, UniProt O60885); assay: Liability panel screening by DSF: BRD4; format: binding; conditions: DSF, 20 µM, n=2; read-out: Mean ΔTM BRD4
T5 construct: This panel comprised ten highly ligandable kinases and bromodomains; made in house
Procedure, shortened: as §1

ABL1 = biological target: T6, ABL1 (Homo sapiens, UniProt P00519); assay: Liability panel screening by DSF: ABL1; format: binding; conditions: DSF, 20 µM, n=2; read-out: Mean ΔTM ABL1
T6 construct: made in house
Procedure, shortened: as §1

MAPK1 = biological target: T7, MAPK1 (Homo sapiens, UniProt P28482); assay: Liability panel screening by DSF: MAPK1; format: binding; conditions: DSF, 20 µM, n=2; read-out: Mean ΔTM MAPK1
T7 construct: made in house
Procedure, shortened: as §1

HEK293T cells [5] = assay: Cytotoxicity: apoptosis induction (caspase-3/7 DEVD fluorogenic DNA dye); conditions: for Apoptosis induction [AI]: single replicates
[6] = tested on: ATF6 activity in Hela ATF6 reporter cells; assay: Endoplasmic reticulum stress assay (ATF6 Renilla luciferase reporter, tunicamycin); format: cell-based; conditions: Homo sapiens, HeLa, 0.3 µM, single replicates n=1 to n=5; read-out: ER stress [rel. ATF6 activity]
Procedure, shortened: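 ER stress was induced by 100 ng/mL tunicamycin added 4 h after compound (0.1% DMSO) to HeLa ATF6 reporter cells. After 18 h more, Renilla luciferase signal was read and expressed relative to DMSO control, n=5 biological replicates.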

TRIM24 = biological target: T8, TRIM24 (Homo sapiens, UniProt O15164); assay: Liability panel screening by DSF: TRIM24; format: binding; conditions: DSF, 20 µM, n=2; read-out: Mean ΔTM TRIM24
T8 construct: This panel comprised ten highly ligandable kinases and bromodomains; made in house
T8 sequence (O15164 899-1004 limits assumed): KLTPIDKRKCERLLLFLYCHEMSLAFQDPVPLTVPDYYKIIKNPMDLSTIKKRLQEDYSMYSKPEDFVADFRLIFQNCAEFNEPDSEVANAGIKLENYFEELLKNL
Procedure, shortened: as §1

[7] = cited from earlier work
CSNK1D = biological target: T9, CSNK1D (Homo sapiens, UniProt P48730); assay: Liability panel screening by DSF: CSNK1D; format: binding; conditions: DSF, 20 µM, n=2; read-out: Mean ΔTM CSNK1D
T9 construct: made in house
Procedure, shortened: as §1

GSK3B = biological target: T10, GSK3B (Homo sapiens, UniProt P49841); assay: Liability panel screening by DSF: GSK3B; format: binding; conditions: DSF, 20 µM, n=2; read-out: Mean ΔTM GSK3B
T10 construct: made in house

Gal4-VP16 = format: cell-based; conditions: 1 µM
Method: Five hours after transfection, the cells were incubated with the NR3 CG compound candidates at the recommended concentrations by changing the medium to Opti-MEM supplemented with penicillin (100 µ/mL) and streptomycin (100 µg/mL) additionally containing 0.1% DMSO and the respective test compound or 0.1% DMSO alone as untreated control. Firefly (reporter) and renilla (control) luminescence were measured after 14–16 h incubation using the Dual-Glo® Luciferase Assay System (Promega, Fitchburg, Wisconsin, USA; #E2980) according to manufacturer’s protocol on a Tecan Spark® 10M multimode microplate reader (Tecan Group AG, Männedorf, Switzerland). To obtain relative light units (RLU) firefly luminescence was divided by renilla luminescence and multiplied by 1000. Fold activation was obtained by dividing the mean RLU of a test sample by the mean RLU of the DMSO (0.1%) control. Experiments were performed in singlets in at least three biologically independent repeats.
are labeled according to their mode of action (yellow - agonist, grey - antagonist, grey with label D - degrader) and grouped by their
NR3 subfamily main targets.
reporter activity at the indicated concentrations expressed as mean fold reporter gene activity (n=3).

HEK293T cells [8] = assay: Evaluation of cytotoxicity (overall: growth-rate, metabolic activity, apoptosis, necrosis); format: cell-based; conditions: HEK293T, 24 h; budesonide (3 µM), others at tested concentration
Method: The selection of 40 CG candidates was acquired from commercial vendors (purity ≥95%) and applied to initial toxicity screening. Cytotoxicity was determined in HEK293T cells considering growth-rate, metabolic activity as well as apoptosis and/or necrosis induction to evaluate suitability of the compounds for CG application in cellular settings (Fig. 3a–d, Supplementary Fig. 1, Supplementary Data 1). The candidates were generally well tolerated at concentrations >>EC50/IC50 that we recommend for CG application with only four compounds showing mild toxic effects. […] In terms of cytotoxicity, all candidates thus appeared suitable for inclusion in an NR3 CG set.

NR3A1 (ERα) = conditions: (lit.); ref Supplementary Table 1; read-out: Potency [nM] EC50, NR3A1 (ERα); cited from earlier work
NR3A2 (ERβ) = conditions: (lit.); ref Supplementary Table 1; read-out: Potency [nM] EC50, NR3A2 (ERβ); cited from earlier work

T4 sequence (P22607 23-806, species assumed): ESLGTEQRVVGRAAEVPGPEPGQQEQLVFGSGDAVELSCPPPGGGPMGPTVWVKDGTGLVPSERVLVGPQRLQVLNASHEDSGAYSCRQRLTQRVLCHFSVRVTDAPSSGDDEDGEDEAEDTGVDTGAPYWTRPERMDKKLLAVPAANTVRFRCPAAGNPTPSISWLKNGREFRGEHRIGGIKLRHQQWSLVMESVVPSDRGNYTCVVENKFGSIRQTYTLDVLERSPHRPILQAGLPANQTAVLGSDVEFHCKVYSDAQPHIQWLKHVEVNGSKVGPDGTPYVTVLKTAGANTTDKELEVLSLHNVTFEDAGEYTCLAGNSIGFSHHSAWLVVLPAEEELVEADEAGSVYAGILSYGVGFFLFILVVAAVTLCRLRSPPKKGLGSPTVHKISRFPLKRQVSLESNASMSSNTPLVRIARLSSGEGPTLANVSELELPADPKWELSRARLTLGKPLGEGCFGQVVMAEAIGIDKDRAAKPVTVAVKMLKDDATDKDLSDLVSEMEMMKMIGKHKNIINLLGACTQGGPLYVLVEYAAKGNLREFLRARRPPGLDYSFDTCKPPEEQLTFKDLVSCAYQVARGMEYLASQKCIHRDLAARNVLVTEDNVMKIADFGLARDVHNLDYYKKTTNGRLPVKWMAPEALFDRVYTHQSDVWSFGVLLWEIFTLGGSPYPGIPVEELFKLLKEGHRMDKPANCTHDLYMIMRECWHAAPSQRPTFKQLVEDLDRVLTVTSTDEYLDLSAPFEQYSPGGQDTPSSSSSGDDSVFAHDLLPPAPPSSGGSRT
T7 sequence (P28482 whole entry, species assumed): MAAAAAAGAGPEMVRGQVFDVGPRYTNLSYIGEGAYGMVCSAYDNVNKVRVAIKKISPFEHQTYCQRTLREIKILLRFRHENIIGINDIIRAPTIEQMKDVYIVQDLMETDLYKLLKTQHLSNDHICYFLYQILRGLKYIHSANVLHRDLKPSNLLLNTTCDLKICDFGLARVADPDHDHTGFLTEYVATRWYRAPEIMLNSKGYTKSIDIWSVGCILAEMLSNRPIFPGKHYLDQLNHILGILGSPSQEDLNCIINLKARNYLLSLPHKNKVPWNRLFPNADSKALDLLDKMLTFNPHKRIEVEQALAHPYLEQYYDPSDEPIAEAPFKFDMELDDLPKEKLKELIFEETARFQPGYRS
T6 sequence (P00519 whole entry, species assumed): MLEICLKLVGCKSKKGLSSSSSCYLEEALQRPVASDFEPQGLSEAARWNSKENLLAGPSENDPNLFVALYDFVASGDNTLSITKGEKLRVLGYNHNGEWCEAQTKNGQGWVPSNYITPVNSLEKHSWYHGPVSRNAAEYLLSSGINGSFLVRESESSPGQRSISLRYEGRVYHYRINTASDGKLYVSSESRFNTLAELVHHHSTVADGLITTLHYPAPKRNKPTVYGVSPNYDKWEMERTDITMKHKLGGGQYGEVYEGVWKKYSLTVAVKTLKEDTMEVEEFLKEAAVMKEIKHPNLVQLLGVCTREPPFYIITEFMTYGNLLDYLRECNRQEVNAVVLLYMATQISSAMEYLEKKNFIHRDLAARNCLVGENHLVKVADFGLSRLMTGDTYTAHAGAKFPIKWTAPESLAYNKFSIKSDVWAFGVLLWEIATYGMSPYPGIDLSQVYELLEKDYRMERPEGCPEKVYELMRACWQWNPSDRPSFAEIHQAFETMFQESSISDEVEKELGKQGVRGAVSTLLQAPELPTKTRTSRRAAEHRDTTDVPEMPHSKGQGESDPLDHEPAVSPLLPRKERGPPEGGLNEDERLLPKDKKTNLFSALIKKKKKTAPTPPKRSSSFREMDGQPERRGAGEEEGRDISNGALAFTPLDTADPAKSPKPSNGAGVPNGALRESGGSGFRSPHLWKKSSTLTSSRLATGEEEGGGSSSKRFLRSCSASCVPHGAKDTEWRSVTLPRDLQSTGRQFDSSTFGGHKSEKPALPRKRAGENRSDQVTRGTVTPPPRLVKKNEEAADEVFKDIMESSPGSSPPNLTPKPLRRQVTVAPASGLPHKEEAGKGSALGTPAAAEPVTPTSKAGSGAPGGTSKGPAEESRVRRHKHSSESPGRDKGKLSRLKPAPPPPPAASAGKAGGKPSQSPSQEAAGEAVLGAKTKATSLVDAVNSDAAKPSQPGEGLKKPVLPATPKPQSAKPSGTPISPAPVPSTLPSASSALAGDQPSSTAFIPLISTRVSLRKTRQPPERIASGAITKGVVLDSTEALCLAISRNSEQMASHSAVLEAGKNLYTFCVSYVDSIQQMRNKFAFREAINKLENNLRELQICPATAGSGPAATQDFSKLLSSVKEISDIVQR
T10 sequence (P49841 whole entry, species assumed): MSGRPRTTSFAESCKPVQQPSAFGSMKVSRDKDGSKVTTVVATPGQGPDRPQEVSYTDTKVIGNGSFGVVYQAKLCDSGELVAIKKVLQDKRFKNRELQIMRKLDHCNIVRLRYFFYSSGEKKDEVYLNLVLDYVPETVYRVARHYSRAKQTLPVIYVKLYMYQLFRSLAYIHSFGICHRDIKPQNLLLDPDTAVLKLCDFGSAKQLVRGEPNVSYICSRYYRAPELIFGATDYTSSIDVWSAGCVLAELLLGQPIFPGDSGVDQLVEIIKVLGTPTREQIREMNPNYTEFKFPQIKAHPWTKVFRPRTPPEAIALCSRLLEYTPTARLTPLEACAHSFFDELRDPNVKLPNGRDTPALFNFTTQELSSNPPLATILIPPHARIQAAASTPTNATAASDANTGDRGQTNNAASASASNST
T9 sequence (P48730 whole entry, species assumed): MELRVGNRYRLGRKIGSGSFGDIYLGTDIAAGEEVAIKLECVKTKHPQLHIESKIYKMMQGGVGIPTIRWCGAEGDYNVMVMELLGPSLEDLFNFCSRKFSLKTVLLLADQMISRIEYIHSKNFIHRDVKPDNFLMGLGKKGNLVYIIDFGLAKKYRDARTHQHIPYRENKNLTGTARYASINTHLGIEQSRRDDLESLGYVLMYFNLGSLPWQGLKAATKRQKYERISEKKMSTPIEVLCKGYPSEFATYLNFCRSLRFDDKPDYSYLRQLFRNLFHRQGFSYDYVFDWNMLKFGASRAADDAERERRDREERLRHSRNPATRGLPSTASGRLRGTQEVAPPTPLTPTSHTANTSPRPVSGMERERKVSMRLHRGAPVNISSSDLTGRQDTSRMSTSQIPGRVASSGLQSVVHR

For `CC(C)(c1ccc(O)cc1)c1ccc(O)cc1` [Bisphenol A], the ΔTm at 20 µM (AURKA) is listed as 0.19 °C, the IC50 (NR3B3 (ERRγ)) is listed as 13 ± 2 nM and the ΔTm at 20 µM (CDK2) is listed as 1.16 °C. For the same compound, the “Necrosis induction [NI]” value (HEK293T cells [1]) was 0.87 and 0.82 and 0.90 and 1.20, the ΔTm at 20 µM (BRPF1) was -2.21 °C and the “Metabolic activity [MA]” value (HEK293T cells [2]; 0.3 µM, HEK293T, 24 h, WST-8, normalized to 0.1% DMSO) was 1.05 (2×) and 0.84 and 0.94 and 1.07 and 0.99 (2×) and 1.13. For the same compound, the “Mean NFκB response” value ([3]; 0.3 µM, 1,5 h) was 2380.54 GFP+-cells/confluence ∙ 1000, the “Mean NFκB response” value ([3]; 0.3 µM, 4,5 h) was 2758.19 GFP+-cells/confluence ∙ 1000 and the “Mean NFκB response” value ([3]; 0.3 µM, 7,5 h) was 7233.84 GFP+-cells/confluence ∙ 1000. For the same compound, the “Mean NFκB response” value ([3]; 0.3 µM, 10,5 h) was 19121.46 GFP+-cells/confluence ∙ 1000, the “Mean NFκB response” value ([3]; 0.3 µM, 13,5 h) was 28203.30 GFP+-cells/confluence ∙ 1000 and the “Mean NFκB response” value ([3]; 0.3 µM, 16,6 h) was 34624.31 GFP+-cells/confluence ∙ 1000. The “Mean NFκB response” value ([3]; 0.3 µM, 19,5 h) was 39396.74 GFP+-cells/confluence ∙ 1000, the “Mean NFκB response” value ([3]; 0.3 µM, 22,5 h) was 42069.32 GFP+-cells/confluence ∙ 1000 and the “Mean NFκB response” value ([3]; 0.3 µM, 3 h) was 2422.37 GFP+-cells/confluence ∙ 1000. The “Mean NFκB response” value ([3]; 0.3 µM, 6 h) was 3882.85 GFP+-cells/confluence ∙ 1000, the “Mean NFκB response” value ([3]; 0.3 µM, 9 h) was 13703.44 GFP+-cells/confluence ∙ 1000 and the “Mean NFκB response” value ([3]; 0.3 µM, 12 h) was 24104.26 GFP+-cells/confluence ∙ 1000. For the same compound, the “Mean NFκB response” value ([3]; 0.3 µM, 15 h) was 31750.86 GFP+-cells/confluence ∙ 1000, the “Mean NFκB response” value ([3]; 0.3 µM, 18 h) was 37025.53 GFP+-cells/confluence ∙ 1000 and the “Mean NFκB response” value ([3]; 0.3 µM, 21 h) was 40865.92 GFP+-cells/confluence ∙ 1000. The “Mean NFκB response” value ([3]; 0.3 µM, 24 h) was 43618.62 GFP+-cells/confluence ∙ 1000, the “Growth rate [GR]” value (HEK293T cells [4]; 0.3 µM) was 0.54 and 1.52 and 0.90 (2×) and 1.13 and 0.87 and 0.95 and 0.88 and 2.38 and 0.44 and the ΔTm at 20 µM (FGFR3) was 0.44 °C. It also gave a ΔTm at 20 µM (BRD4) of -2.63 °C, a ΔTm at 20 µM (ABL1) of 0.26 °C and a ΔTm at 20 µM (MAPK1) of 0.26 °C. The “Apoptosis induction [AI]” value (HEK293T cells [5]; 0.3 µM, HEK293T, 24 h, apoptotic cell count normalized to 0.1% DMSO) was 0.73 and 0.80 and 0.66 and 1.02 and 0.52 and 0.91, the activity at 0.3 µM [6] was 96% and the ΔTm at 20 µM (TRIM24) was -1.35 °C.
In the case of `C#C[C@]1(O)CC[C@H]2[C@@H]3CCc4cc(O)ccc4[C@H]3CC[C@@]21C` [Ethinylestradiol], the ΔTm at 20 µM (AURKA) is reported as 0.11 °C, the ΔTm at 20 µM (CDK2) is reported as -0.25 °C and the ΔTm at 20 µM (BRPF1) is reported as 1.32 °C. The “Metabolic activity [MA]” value (HEK293T cells [2]; 1 µM, DMSO 0.1% = 1.00) was 1.06 (2×) and 0.82 and 1.07 and 1.00 and 0.95, the “Growth rate [GR]” value (HEK293T cells [4]; 1 µM) was 1.36 and 0.84 and 1.03 and 0.88 and 0.94 and 0.78 and the “NR off-target at recom. conc.” value ([7]; known NR off-target at the recommended concentration, ref Supplementary Table 1 (superscript references)) was “NR1I3”. The “Other off-target at recom. conc.” value ([7]; known off-target outside the NR family at the recommended concentration, ref Supplementary Table 1 (superscript references)) was “AOX1 and CYP2B6 and SULT1A1 and OCT2”, the “Reason for exclusion: number of annotated off-targets” value ([7]; other targets with annotated bioactivities at ≤10 µM in previously published dataset) was greater than 5 off-targets and the ΔTm at 20 µM (CSNK1D) was 0.07 °C. It also gave a ΔTm at 20 µM (FGFR3) of -0.28 °C, a ΔTm at 20 µM (GSK3B) of 0.23 °C and a ΔTm at 20 µM (BRD4) of 0.13 °C. The “VP16 control [fold reporter gene activity] (n=3), n=1” value (Gal4-VP16; replicate n=1) was 1.03 fold, the “VP16 control [fold reporter gene activity] (n=3), n=2” value (Gal4-VP16; replicate n=2) was 0.89 fold and the “VP16 control [fold reporter gene activity] (n=3), n=3” value (Gal4-VP16; replicate n=3) was 0.92 fold. For the same compound, the ΔTm at 20 µM (ABL1) was -0.29 °C, the “effects on growth-rate, metabolic activity and necrosis” value (HEK293T cells [8]) was “without relevant effects” and the EC50 (NR3A1 (ERα)) was 8 ± 1 nM. For the same compound, the ΔTm at 20 µM (MAPK1) was 0.35 °C, the “Apoptosis induction [AI]” value (HEK293T cells [5]; 1 µM, DMSO 0.1% = 1.00) was 1.56 and 1.81 and the apoptosis induction (HEK293T cells [5]; HEK293T, 24 h, budesonide (3 µM), others at tested concentration) was “slight apoptosis induction”. The EC50 (NR3A2 (ERβ)) was 18 ± 2 nM and the ΔTm at 20 µM (TRIM24) was -1.12 °C.
